Laboratory results reported in patent US20080051424A1, “Heterocyclyl-substituted nonadepsipeptides” (priority 2004, published 2008).
Starred links: 1 amine or outer side, 2 acyl side, 3 side chain; linkers in the order of their positions; H or OH if unused. Positions of bridges follow the written chain, without caps; N, C: chain ends. Non-standard residues stand in square brackets, D forms with d. Residues, ends and D or L forms follow the SMILES beside them. Phe(3R-OH) = O=C([C@@H](N[*:1])[C@H](O[*:3])c1ccccc1)[*:2]; X1 = CC1CC(C)NC(NCCC[C@@H](N[*:1])C(=O)[*:2])=N1; Asn(3S-OH) = NC(=O)[C@@H](O)[C@H](N)C(=O)O; Leu(3R-OH) = CC(C)[C@@H](O)[C@H](N)C(=O)O; aThr = C[C@H](O)[C@H](N)C(=O)O

Tests used:
[1] = system: Staphylococcus aureus 133; type: cell-based
Protocol: (§1) Determination of the Minimum Inhibitory Concentration (MIC): The MIC is determined in the liquid dilution test in accordance with the NCCLS guidelines. Overnight cultures of Staphylococcus aureus 133, Entercococcus faecalis 27159, E. faecium 4147 and Streptococcus pneumoniae G9a are incubated with the described test substances in a 1:2 dilution series. The MIC determination is carried out with a cell count of 10^5 microorganisms per ml in Isosensitest medium (Difco, Irvine/USA), with the exception of S. pneumoniae, which is tested in BHI broth (Difco, Irvine/USA) with 10% bovine serum at a cell count of 10^6 microorganisms per ml. The cultures are incubated at 37° C. for 18-24 hours, S. pneumoniae in the presence of 10% CO2. The lowest substance concentration in each case at which no visible bacterial growth occurs any more is defined as the MIC. The MIC values are reported in μg/ml.

[2] = system: Streptococcus pneumoniae G9a; type: cell-based
Protocol: as §1

[3] = system: E. faecalis ICB 27159; type: cell-based, Enterococcus faecalis
Protocol: as §1

## CC[C@H](C)[C@@H]1NC(=O)[C@@H](CCCNC2=NC(C)CC(C)N2)NC(=O)[C@H](CC(C)C)NC(=O)[C@H]([C@H](O)C(C)C)NC(=O)[C@@H](NC(=O)[C@H](CC(C)C)NC(=O)[C@H](N)CC(C)C)[C@@H](c2ccccc2)OC(=O)[C@H](CO)NC(=O)[C@H]([C@H](O)C(N)=O)NC(=O)CNC(=O)[C@H]([C@H](C)O)NC1=O.O=C(O)C(F)(F)F.O=C(O)C(F)(F)F (stereo partly drawn) [Example 3, N^ω.6,N^ω′.6-(Pentane[2,4]diyl)lysobactin] (H-[dL]L[Phe(3R-OH)][Leu(3R-OH)]L[X1]I[aThr]G[Asn(3S-OH)]S; ester 3-C)
[1]
  MIC S. aureus 133: 0.5 µg/mL
[2]
  MIC S. pneumoniae: 0.5 µg/mL
[3]
  MIC E. faecalis ICB 27159: 2 µg/mL
